Assay: Super-saturation studies: in-vitro dissolution in different media (SGF, FaSSIF, FeSSIF, buffer pH 7)
Assay type: physicochemical
Conditions: ~4 mg/ml = 100% release
Excerpt: The in-vitro dissolution of the HPMC-based solid dispersion 1B (Component 1B) and that of the enteric HPMC-P based solid dispersion 2D (Component 2D) were studied in different media and compared to the crystalline-hemihydrate or the amorphous compound A.

Compound | Concentration of Compound A (FaSSIF, 10 min) [µg/mL] | Concentration of Compound A (FaSSIF, 30 min) [µg/mL] | Concentration of Compound A (FaSSIF, 60 min) [µg/mL] | Concentration of Compound A (FaSSIF, 180 min) [µg/mL] | Concentration of Compound A (FeSSIF, 10 min) [µg/mL] | Concentration of Compound A (FeSSIF, 30 min) [µg/mL] | Concentration of Compound A (FeSSIF, 60 min) [µg/mL] | Concentration of Compound A (FeSSIF, 180 min) [µg/mL] | Concentration of Compound A (SGF, 10 min) [µg/mL] | Concentration of Compound A (SGF, 30 min) [µg/mL] | Concentration of Compound A (SGF, 60 min) [µg/mL] | Concentration of Compound A (SGF, 180 min) [µg/mL]
CN(C(=O)c1cc(C(F)(F)F)cc(C(F)(F)F)c1)[C@@H](/C=C/C(=O)N[C@@H]1CCCCNC1=O)Cc1ccc(Cl)c(Cl)c1 [A-amorphous, (4R)-4-[N′-methyl-N′-(3,5-bistrifluoromethyl-benzoyl)-amino]-4-(3,4-dichlorobenzyl)-but-2-enoic acid N—[(R)-epsilon-caprolactam-3-yl]-amide] | 102 | 63 | 9 | 0 | 531 | 575 | 48 | 49 | 491 | 0 | 0 | 0
CN(C(=O)c1cc(C(F)(F)F)cc(C(F)(F)F)c1)[C@@H](/C=C/C(=O)N[C@@H]1CCCCNC1=O)Cc1ccc(Cl)c(Cl)c1 [Compd A crystalline (hemihydrate), (4R)-4-[N′-methyl-N′-(3,5-bistrifluoro-methyl-benzoyl)-amino]-4-(3,4-dichlorobenzyl)-but-2-enoic acid N—[(R)-epsilon-caprolactam-3-yl]-amide semihydrate] | 0 | 0 | 0 | 0 | 62 | 54 | 56 | 44 | 0 | 0 | 0 | 0

— patent publication US20100015225A1, “SOLID DISPERSION OF A NEUROKININ ANTAGONIST” (priority 2006, published 2010)
